In assay [1] the target is T1, enzyme in 2-e-2 cell lysate (Bacillus thuringiensis, UniProt E2GIN1).
T1 construct: the collected and washed 2-e-2 cells were disrupted using a mortar; endogenous in cells; host or cells: Bacillus thuringiensis 2-e-2 cell lysate
The experiment in a line: Effects of enzyme cofactors on 4-hydroxyisoleucine production with 2-e-2 cell lysate. In kind it is biochemical. Conditions: Lysate + 5 mM Ile + 5 mM cofactor; 50 mM HEPES pH 7. As to the method: (§1) The cells were cultured in the AMKP medium until OD660 of 3.2 was achieved, then the collected and washed 2-e-2 cells were disrupted using a mortar, and suspended in a buffer (50 mM HEPES (pH 7.0), 10% of glycerol, Complete Mini (Roche)) until a suspension (lysate) is obtained having a protein concentration of about 10 mg/ml including centrifugation precipitates. The centrifugation precipitates were finally suspended in physiological saline of the same volume as the cell lysate. These were each mixed with an equal volume of a 2× dioxygenase reaction mixture (10 mM Ile, […], 10 mM 2-oxoglutaric acid, 10 mM ascorbic acid, 100 mM HEPES (pH 7.0)), and the reaction proceeded at 30° C. for 1 hour. Similarly, resting cells used for the preparation of the cell lysate were washed, and suspended in physiological saline at a concentration 10 times that in the culture broth, the suspension was mixed with an equal volume of the 2× dioxygenase reaction mixture, and the reaction proceeded.
By using a cell lysate of the 2-e-2 cells in the logarithmic growth phase, the effects of cofactors on the 4-hydroxyisoleucine production reaction by hydroxylation of Ile were examined. A 50 mM HEPES (pH 7) reaction mixture was used containing final concentrations of 5 mM Ile and 5 mM of one of various cofactors with a cell lysate of the 2-e-2 cells (lysate) in the logarithmic growth phase prepared by the method described in <5> above, and the amount of 4-hydroxyisoleucine produced was measured.

For assay [2], the target named is T2, L-Ile hydroxylase (Bacillus thuringiensis, UniProt E2GIN1).
T2 construct: made in house; host or cells: Bacillus thuringiensis 2-e-2 (natural producer; enzyme purified by chromatography, not recombinant)
T2 sequence (E2GIN1 2-240): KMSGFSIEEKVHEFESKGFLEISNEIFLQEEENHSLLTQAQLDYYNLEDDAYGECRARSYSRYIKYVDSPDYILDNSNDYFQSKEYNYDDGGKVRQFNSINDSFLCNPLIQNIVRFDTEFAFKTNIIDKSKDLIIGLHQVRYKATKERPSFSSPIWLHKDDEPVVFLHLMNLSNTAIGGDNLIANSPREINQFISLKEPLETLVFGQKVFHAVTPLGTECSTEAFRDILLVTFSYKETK
The experiment in a line: Effects of addition of cofactors on 4-hydroxyisoleucine production with purified enzyme. In kind it is biochemical. Conditions: purified enzyme + 5 mM L-Ile + 5 mM cofactor; 100 mM HEPES pH 6. From the text:
The effects of cofactors on the production of 4-hydroxyisoleucine by hydroxylation of Ile were examined by using the purified enzyme.

Assay [3] deals with T2, L-Ile hydroxylase. The experiment in a line: Effects of inhibitors on 4-hydroxyisoleucine production by purified L-Ile hydroxylase. The note with it: 10 mM inhibitor; 4-hydroxyisoleucine production with no inhibitor = 100%; pH 6, 30° C., 1 hour. In kind it is biochemical. Here is the method:
Each fraction was reacted using an Ile hydroxylation activity reaction mixture (100 mM HEPES (pH 6.0), 5 mM L-Ile, 5 mM Fe^2+, 5 mM 2-oxoglutaric acid, 5 mM ascorbic acid at final concentrations) at 30° C. for 30 minutes. The enzyme was inactivated at 100° C., and then the amount of 4-hydroxyisoleucine was quantified by the aforementioned AMKP and HIL separation and measurement method. The 4-hydroxyisoleucine referred to in the subsequent analysis indicates a substance that is substantially composed of the isomer having the same retention time as that of the naturally occurring 4-hydroxyisoleucine. The enzyme activity that produces 1 nmol of HIL per minute was defined as 1 U.
By using L-Ile hydroxylase prepared as described in Example 2, the effect of inhibitors on the production of 4-hydroxyisoleucine were examined. The enzymatic reaction solution contained 5 mM Ile, 5 mM Fe^2+, 5 mM 2-oxoglutaric acid, 5 mM ascorbic acid, and 100 mM HEPES (pH 6), the reaction temperature was 30° C., and the reaction time was 1 hour. The amount of 4-hydroxyisoleucine produced when 10 mM of each inhibitor (EDTA, Cu^2+, Zn^2+) was added to the reaction system was measured. These values are relative to the 4-hydroxyisoleucine production observed with no inhibitor, which was set as 100%. The isoleucine hydroxylation activity was lost in the presence of the inhibitors.

Assay [4] addresses T1, enzyme in 2-e-2 cell lysate. The experiment in a line: Effect of inhibitors on 4-hydroxyisoleucine production in the 2-e-2 cell lysate. The class given is biochemical. The note with it: 10 mM inhibitor, pH 6, 30° C., 1 hour. As to the method:
as §1
By using a cell lysate prepared from 2-e-2 cells at OD660 of 7 according to the method described in <5>, the effects of inhibitors on the 4-hydroxyisoleucine production were examined. […] The dioxygenase reaction mixture contained 5 mM Ile, 5 mM Fe^2+, 5 mM 2-oxoglutaric acid, 5 mM ascorbic acid, and 100 mM HEPES (pH 6), the reaction temperature was 30° C., and the reaction time was 1 hour. The amount of 4-hydroxyisoleucine which was produced when 10 mM of each inhibitor (EDTA, Cu^2+, Zn^2+) was added to the reaction system was measured. 4-Hydroxyisoleucine was analyzed by the method described in <2>. The isoleucine hydroxylation activity was inhibited by the inhibitors.

Assay [5] has as its target T2, L-Ile hydroxylase. The experiment in a line: Substrate reaction characteristics of purified L-Ile hydroxylase. The class given is biochemical. The note with it: 5 mM amino acid; purified enzyme; pH 6, 30° C., 1 hour; HPLC. Here is the method:
By using L-Ile hydroxylase prepared as described in Example 2, the reaction characteristics for various amino acids were evaluated. The enzyme solution and the reaction mixture were mixed, and then the reaction proceeded at 30° C. for 1 hour, and the production of new substances was evaluated by HPLC analysis. The enzymatic reaction solution contained 5 mM amino acid, 5 mM Fe^2+, 5 mM 2-oxoglutaric acid, 5 mM ascorbic acid, and 100 mM HEPES (pH 6). In addition to L-isoleucine, the amino acids D-isoleucine, L-leucine, L-valine, L-glutamic acid, and L-lysine were also individually evaluated. The produced 4-hydroxyisoleucine was analyzed as in Example 1. Like when using a cell lysate, production of a new substance could not be confirmed for amino acids other than L-isoleucine.

Assay [6] concerns the target T1, enzyme in 2-e-2 cell lysate. The experiment in a line: Substrate reaction characteristics of enzyme in 2-e-2 cell lysate. Conditions: 5 mM amino acid, pH 7, 30° C., 1 hour, TLC or amino acid analysis. In kind it is biochemical. Here is the method:
as §1
By using a cell lysate prepared from 2-e-2 cells at OD660 of 7 according to the method described in <5>, the reaction characteristics for various amino acids were evaluated. The cell lysate and a substrate solution were mixed, then the reaction proceeded at 30° C. for 1 hour, and the production of new substances was evaluated by TLC or amino acid analysis. The substrate reaction mixture contained 5 mM amino acid, 5 mM Fe^2+, 5 mM 2-oxoglutaric acid, 5 mM ascorbic acid, and 100 mM HEPES (pH 7). In addition to L-isoleucine, the amino acids L-leucine, L-valine, L-glutamic acid, and L-lysine were each individually evaluated. The 4-hydroxyisoleucine which was produced was analyzed by the method described in Example 1. Production of amino acids other than L-isoleucine was not observed.

A short description of assay [7]: Production of HIL from Ile with crude enzyme solution of E. coli expressing ido genes. The class given is biochemical, Escherichia coli. Conditions: 28° C., 3 hours, control (pET21b) 11. Here is the method: The plasmid expressing the ido gene from B. cereus ATCC 14579, B. thuringiensis AKU238, or B. weihenstephanensis KBAB4, which was constructed in Example 8, was introduced into E. coli Rosetta2 (DE3), and the transformants were cultivated with shaking in LB medium supplemented with 50 μg/ml ampicilin (preculture). By seeding the preculture broth in 50 ml LB medium at 1%, the main culture was carried out at 37° C. 2 hours after the start of the cultivation, IPTG was added to a final concentration of 1 mM, and the cultivation was carried out for an additional 3 hours. After completion of the cultivation, the cells were harvested, washed, suspended in 1 ml of 20 mM Tris-HCl (pH 7.6), and disrupted with a sonicator (INSONATOR 201M, KUBOTA). The lysate was centrifuged at 15000 rpm for 10 minutes, and the supernatant was used as a crude enzyme solution.
By using the crude enzyme solution prepared in (1), the conversion of Ile to HIL was measured. The reaction mixture is described below. The reaction mixture was reacted with shaking (300 rpm) at 28° C. for 3 hours, and then the amount of HIL produced was determined by HPLC.

T1 sequence (E2GIN1 2-240): as above

As to `O=C1O[C@H]([C@@H](O)CO)C(O)=C1O` [Ascorbate, ascorbic acid], the “HIL production” value in assay [1] was found to be 0.00 mM. At L-Ile hydroxylase [2], the “HIL” value is listed as 0.00 mM. As to `[Cu+2]` [Cu^2+], the “Relative activity (%)” value on L-Ile hydroxylase [3] stood at 0%. Besides, the “isoleucine hydroxylation activity in presence of inhibitor” value in assay [4] is “inhibited”.

Regarding `CC[C@@H](C)[C@@H](N)C(=O)O` [D-Isoleucine, D-isoleucine], the “Product (reactivity for each amino acid)” value on L-Ile hydroxylase [5] was “None”.

For the molecule `N[C@@H](CCC(=O)O)C(=O)O` [L-Glutamic acid, L-glutamic acid], the “Product (reactivity for various amino acids)” value in assay [6] is “None”. For the same molecule, on L-Ile hydroxylase [5], the “Product (reactivity for each amino acid)” value is “None”. In the case of `CC(C)C[C@H](N)C(=O)O` [L-Leucine, L-leucine], the “Product (reactivity for various amino acids)” value in assay [6] is “None”. The “Product (reactivity for each amino acid)” value at L-Ile hydroxylase [5] is on record as “None”. In the case of `NCCCC[C@H](N)C(=O)O` [L-Lysine, L-lysine], the “Product (reactivity for various amino acids)” value in assay [6] is “None”. Also, on L-Ile hydroxylase [5], the “Product (reactivity for each amino acid)” value was “None”. On to `CC(C)[C@H](N)C(=O)O` [L-Valine, L-valine], for which, in assay [6], the “Product (reactivity for various amino acids)” value is recorded as “None”. At L-Ile hydroxylase [5], the “Product (reactivity for each amino acid)” value is “None”.

In the case of `[Zn+2]` [Zn^2+], the “Relative activity (%)” value at L-Ile hydroxylase [3] came to 0%. For the same molecule, the “isoleucine hydroxylation activity in presence of inhibitor” value in assay [4] is given as “inhibited”.

For the molecule `O=C(O)CCC(=O)C(=O)O` [α-KG, 2-oxoglutaric acid], the “HIL production” value in assay [1] is recorded as 0.00 mM. In addition, the “HIL” value on L-Ile hydroxylase [2] stood at 0.00 mM.

B1: B. weihenstephanensis KBAB4: crude enzyme solution of E. coli expressing ido gene from B. weihenstephanensis KBAB4, SEQ ID NO: 21 (protein, listed as Bacillus weihenstephanensis)
chain: MLTTVSNKTSSFDVEQKVHEFESNGYIQIFNDIFLQDQEDQALLTKAQLDYYSLQNDAYGECRARAYSRYIKYAGSSDYVLDTDNGYFQSEEYNYDDGGKIRNFNSITDEFLHNSLIEKIVRFDSEFASNTNILDTSKDLVIGLHQVRYKATRENPSFSSPIWLHKDDEPIVFLHLMNLSNTALGGDNLIANSPREINKLISLKDPLETLVFGQKVFHAVTPLGTECNTEALRDILLVTFSYKEPK
Turning to B1, in assay [7], the “Amount of HIL produced from Ile, HIL” value came to 3116 µM.

B2: B. thuringiensis AKU238: crude enzyme solution of E. coli expressing ido gene from B. thuringiensis AKU238, SEQ ID NO: 17 (protein, listed as Bacillus thuringiensis)
chain: MEVFIMTFVLSKMSGFSIEEKVHEFESKGFLEISNEIFLQEEENHRLLTQAQLDYYNLEDDAYGECRARSYSRYIKYVDSPDYILDNSNDYFQSKEYNYDDGGKVRQFNSINDSFLCNPLIQNIVRFDTEFAFKTNIIDTSKDLIIGLHQVRYKATKERPSFSSPIWLHKDDEPVVFLHLMNLSNTAIGGDNLIANSPREINQFISLKEPLETLVFGQKVFHAVTPLGTECSTEAFRDILLVTFSYKETK
With B2, the “Amount of HIL produced from Ile, HIL” value in assay [7] amounted to 2016 µM.

B3: B. thuringiensis israelensis ATCC35646: crude enzyme solution with IDO from B. thuringiensis israelensis ATCC 35646, SEQ ID NO: 8 (protein, listed as Bacillus thuringiensis)
chain: KMSGFSIEEKVHEFESKGFLEISNEIFLQEEENHSLLTQAQLDYYNLEDDAYGECRARSYSRYIKYVDSPDYILDNSNDYFQSKEYNYDDGGKVRQFNSINDSFLCNPLIQNIVHFDTEFAFKTNIIDKSKDLIIGLHQVRYKATKERPSFSSPIWLHKDDEPVVFLHLMNLSNTAIGGDNLIANSPREINQFISLKEPLETLVFGQKVFHAVTPLGTECSTEAFRDILLVTFSYKETK
With B3, the “Amount of HIL produced from Ile, HIL” value in assay [7] was 2150 µM.

The values are drawn from US8273562B2, “Method for producing 4-hydroxy-L-isoleucine” (Ajinomoto Co., Inc., priority 2006, dated 2012).
